Reference: patent US20230293539A1, “MLL1-WDR5 PROTEIN-PROTEIN INTERACTION INHIBITOR COMPOUNDS AND USES THEREOF” (HUYABIO International, LLC, priority 2022, published 2023)

Tests used:
[1] = Compound formulation stability assay; assay type: physicochemical; settings: 10 mg/mL in 10% DMSO/10% solutol HS 15/80% water, 2-8° C.
Procedure: Compound formulation stability assay: Test articles were formulated in 10% DMSO/10% solutol HS 15/80% water and stored at 4° C. Formulated compounds were analyzed by a HPLC-UV method for actual concentrations and % remaining on Day 1, 4 and 7 after formulation to determine the stability of the formulated test article. The HPLC system was equipped with Shimadzu LC-20 high-performance liquid chromatograph, SIL-20AC auto sampler, LC-20AB pump and SPD-M20A detector. A Waters XBridge C18 (4.6*100 mm) column was applied for the separation. […]

TCPTP = TCPTP (Homo sapiens, UniProt P17706); assay: Selectivity panel (Table 3); assay type: biochemical
Sequence of TCPTP (P17706 whole entry, species assumed): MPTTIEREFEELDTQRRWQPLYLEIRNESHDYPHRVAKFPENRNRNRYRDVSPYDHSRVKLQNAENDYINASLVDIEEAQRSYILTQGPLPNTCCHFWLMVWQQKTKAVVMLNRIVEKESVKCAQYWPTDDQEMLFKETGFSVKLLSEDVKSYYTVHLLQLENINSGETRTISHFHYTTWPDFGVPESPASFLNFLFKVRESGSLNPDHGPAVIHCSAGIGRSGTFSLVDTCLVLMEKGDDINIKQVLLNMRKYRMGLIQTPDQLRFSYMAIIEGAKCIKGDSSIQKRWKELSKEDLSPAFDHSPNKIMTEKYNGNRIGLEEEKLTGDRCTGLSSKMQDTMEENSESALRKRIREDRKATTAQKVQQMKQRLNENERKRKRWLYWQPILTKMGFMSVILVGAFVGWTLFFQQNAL

Liver S9 stability assay = assay type: in vitro ADME, rat
Procedure: Liver S9 stability assay: Test compounds (1 μM) and positive control were incubated with 5 mM GSH and liver S9 (1 mg protein/ml) from multiple species (including human, monkey, dog, rat and mouse) at 37° C. at 0, 10, 30, and 60 minutes in duplicate. After adding the stop solution, 100 μL of supernatant were analyzed by LC-MS/MS. The % remaining of test compound, T1/2 (min), and CLint (μL/min/mg) were calculated and were reported.

BRD3-BD1 = biological target: T1, BRD3-BD1 (Homo sapiens, UniProt Q15059); assay: Selectivity panel (Table 3); assay type: binding
T1 construct: BRD3-BD1
T1 sequence (Q15059 34-140 limits assumed): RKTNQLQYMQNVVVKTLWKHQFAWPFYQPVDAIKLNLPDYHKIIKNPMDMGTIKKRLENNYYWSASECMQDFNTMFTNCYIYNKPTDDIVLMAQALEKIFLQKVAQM

## Cc1c(F)c(N)cc(C(=O)Nc2cc(-n3cc(C(=O)N4CCN(C)CC4)nn3)c(F)cc2N2C[C@@H](C)N(C)[C@@H](C)C2)c1Cl [HYBI-084, 5-amino-2-chloro-4-fluoro-N-(4-fluoro-5-(4-(4-methylpiperazine-1-carbonyl)-1H-1,2,3-triazol-1-yl)-2-((3S,5R)-3,4,5-trimethylpiperazin-1-yl)phenyl)-3-methylbenzamide]
[1]; Day 0
  Accuracy % (Day 0): 92.8%
  Formulation Appearance (Day 0): clear solution
  Remaining % (Day 0): 100%
[1]; Day 1
  Accuracy % (Day 1): 93.4%
  Formulation Appearance (Day 1): clear solution
  Remaining % (Day 1): 101%
[1]; Day 4
  Accuracy % (Day 4): 92.9%
  Formulation Appearance (Day 4): clear solution
  Remaining % (Day 4): 100%
[1]; Day 7
  Accuracy % (Day 7): 91.5%
  Formulation Appearance (Day 7): clear solution
  Remaining % (Day 7): 98.7%
TCPTP
  IC50: > 1000 nM
Liver S9 stability assay; Rat liver S9
  half-life at 1 μM: > 2.42 h
  microsomal CLint at 1 μM: < 4.8 µL/min/mg
Liver S9 stability assay; Rat liver S9, 1 μM, 5 mM GSH, 37° C.
  % Remaining after 60 min incubation: 80.1%
BRD3-BD1
  IC50: > 1000 nM
